Data published in patent US4877893A, “Process for the preparation of 2-(O-alkyl)-2-thio-1,3,2-oxathiophospholanes” (priority 1987, dated 1989).

How the values were obtained:
Experiment in all cases: Fungicidal effect on infected agar nutrient media, colony diameter
Type in all cases: cell-based
Sclerotinia sclerotinia = settings: 3rd day after treatment, untreated control 41.7
Experimental: (§1) Agar nutrient media (Diameter 70 MM, thickness 10 mm) infected by Sclerotonia sclerotinia suspension are treated with 20 EC formulations prepared according to Example 27 and comprising 1, 10, 100 and 1000 ppm, respectively of the active ingredient of the Formula I. The fungicidal effect of the compositions is evaluated on the 3rd day after treatment by measuring the diameter of the Fungi colonies.

Penicillium cyclopium = settings: 7th day after treatment, untreated 26.5
Experimental: as §1
The series of measureents described in Example 35 is carried out except that the agar nutrient media are infected by a Penicillium cyclopium Fungi strain and the test is evaluated on the 7th day after treatment.

Alternaria tenuis = settings: 5th day after treatment, untreated control 36.8
Experimental: as §1
The series of measurements according to Example 35 is carried out except that the agar nutrient media are infected by Alternaria Tenius and evaluation is accomplished on the 5th day after treatment.

| Compound | Diameter of colony (mm) (Sclerotinia sclerotinia; 1 ppm) | Diameter of colony (mm) (Sclerotinia sclerotinia; 10 ppm) | Diameter of colony (mm) (Sclerotinia sclerotinia; 100 ppm) | Diameter of colony (mm) (Sclerotinia sclerotinia; 1000 ppm) | Diameter of colony (mm) (Penicillium cyclopium; 1 ppm) | Diameter of colony (mm) (Penicillium cyclopium; 10 ppm) | Diameter of colony (mm) (Penicillium cyclopium; 100 ppm) | Diameter of colony (mm) (Penicillium cyclopium; 1000 ppm) | Diameter of colony (mm) (Alternaria tenuis; 1 ppm) | Diameter of colony (mm) (Alternaria tenuis; 10 ppm) | Diameter of colony (mm) (Alternaria tenuis; 100 ppm) | Diameter of colony (mm) (Alternaria tenuis; 1000 ppm) |
| --- | --- | --- | --- | --- | --- | --- | --- | --- | --- | --- | --- | --- |
| CC(CCl)OP1(=S)OC(C)CS1 (stereo not drawn) [Compound 19, 2-(0-1'-methyl-2'-chloroethyl)-2-thio-5-methyl-1,3,2-oxathiophospholane] | 36.5 | 27.4 | 3.9 | 0 | 21.5 | 15.6 | 5.5 | 0 | 32.3 | 21.7 | 4.3 | 0 |
| CC(CBr)OP1(=S)OC(C)CS1 (stereo not drawn) [Compound 20] | 34.9 | 28.2 | 1.6 | 0 | 20.1 | 17.7 | 4.1 | 0 | 33.2 | 25.0 | 5.0 | 0 |
| CC(CI)OP1(=S)OC(C)CS1 (stereo not drawn) [Compound 21, 2-(0-1'-methyl-2'-iodoethyl)-2-thio-5-methyl-1,3,2-oxathiophospholane] | 33.8 | 25.8 | 2.50 | 0 | 23.7 | 20.0 | 6.9 | 0 | 30.9 | 24.2 | 7.2 | 0 |
| CC(Cl)COP1(=S)OC(C)CS1 (stereo not drawn) [Compound 22, 2-(0-2'-methyl-2'-chloroethyl)-2-thio-5-methyl-1,3,2-oxathiophospholane] | 37.8 | 30.1 | 2.9 | 0 | 24.6 | 16.2 | 6.7 | 0 | 34.4 | 26.1 | 8.7 | 0 |
| CC(Br)COP1(=S)OC(C)CS1 (stereo not drawn) [Compound 23] | 36.9 | 29.7 | 3.6 | 0 | 22.6 | 15.8 | 4.3 | 0 | 33.8 | 24.1 | 5.2 | 0 |
| CC(I)COP1(=S)OC(C)CS1 (stereo not drawn) [Compound 24] | 38.1 | 29.0 | 3.2 | 0 | 24.2 | 15.0 | 5.9 | 0 | 34.8 | 25.5 | 6.1 | 0 |
| CC(Cl)COP1(=S)OCC(C)S1 (stereo not drawn) [Compound 25] | 38.8 | 30.3 | 1.0 | 0 | 26.0 | 19.8 | 7.8 | 0 | 33.8 | 24.0 | 6.5 | 0 |
| CC(Br)COP1(=S)OCC(C)S1 (stereo not drawn) [Compound 26] | 40.9 | 32.1 | 1.6 | 0 | 20.5 | 18.8 | 8.5 | 0 | 34.2 | 21.1 | 6.2 | 0 |
| CC(I)COP1(=S)OCC(C)S1 (stereo not drawn) [Compound 27] | 41.2 | 28.6 | 1.4 | 0 | 23.8 | 17.5 | 4.6 | 0 | 33.5 | 22.4 | 8.8 | 0 |
| CC(Cl)C(C)OP1(=S)OCCS1 (stereo not drawn) [Compound 28] | 33.6 | 27.4 | 0 | 0 | 18.2 | 14.7 | 5.7 | 0 | 34.2 | 22.4 | 4.8 | 0 |
| CC(Br)C(C)OP1(=S)OCCS1 (stereo not drawn) [Compound 29] | 31.9 | 25.2 | 1.2 | 0 | 25.0 | 19.2 | 8.0 | 0 | 33.2 | 23.6 | 6.5 | 0 |
| CC(I)C(C)OP1(=S)OCCS1 (stereo not drawn) [Compound 30] | 34.8 | 30.0 | 0 | 0 | 21.2 | 20.0 | 7.2 | 0 | 30.1 | 26.7 | 7.2 | 0 |
| CC1COP(=S)(OC(C)C(C)Cl)S1 (stereo not drawn) [Compound 31] | 37.4 | 29.2 | 4.0 | 0 | 23.6 | 14.9 | 9.0 | 0 | 36.0 | 23.6 | 8.1 | 0 |
| CC1COP(=S)(OC(C)C(C)Br)S1 (stereo not drawn) [Compound 32] | 38.9 | 30.0 | 3.2 | 0 | 19.4 | 16.7 | 7.2 | 0 | 31.2 | 27.4 | 7.2 | 0 |
| CC1COP(=S)(OC(C)C(C)I)S1 (stereo not drawn) [Compound 33] | 33.2 | 26.4 | 0 | 0 | 22.3 | 20.7 | 6.1 | 0 | 33.0 | 21.3 | 6.3 | 0 |
| CC(CCl)OP1(=S)OC(C)C(C)S1 (stereo not drawn) [Compound 34, 2-(0-1'-methyl-2'-chloroethyl)-2-thio-4,5-dimethyl-1,3,2-oxathiophospholane] | 34.6 | 23.9 | 1.3 | 0 | 19.7 | 16.5 | 4.9 | 0 | 30.3 | 25.9 | 5.7 | 0 |
| CC(CBr)OP1(=S)OC(C)C(C)S1 (stereo not drawn) [Compound 35] | 38.1 | 25.7 | 2.6 | 0 | 25.1 | 14.7 | 8.3 | 0 | 34.7 | 27.1 | 6.2 | 0 |
